{"source": "patent US20240065988A1", "about": "“COMBINED USE OF KETAMINE AND RETIGABINE (EZOGABINE) FOR THE TREATMENT OF PSYCHIATRIC DISORDERS” (Yeda Research and Development Co. Ltd., priority 2021, published 2024)", "key": {"[1]": {"tested_on": "Kcnq2 mRNA in primary hippocampal neurons", "experiment": "Kcnq2 mRNA in primary hippocampal neurons stimulated with HNKet alone or plus nifedipine, W-7 or cyclosporine-A", "type": "cell-based, mouse", "description": "(§1) Primary hippocampal neurons were generated from E16.5 embryos using a standard primary neuron cell culture protocol previously described [K. G. Schraut et al., Eur JNeurosci (2021) 53: 390-401]. Briefly, dissected hippocampi were harvested in ice-cold dissection medium (HBSS, 7 mM HEPES, 2 mM L-glutamine, 500 U/ml penicillin-streptomycin, all Thermo Fisher Scientific). The tissue was incubated for 10 minutes in 0.25% Trypsin-EDTA with 8 mM HEPES (Thermo Fisher Scientific) in a water bath at 37° C. Tissue was washed three times with serum medium (DMEM, 10% FBS, Thermo Fisher Scientific). The cells were dissociated by titration using glass Pasteur pipets 10 in serum medium and filtered with a 70 tm cell strainer (Corning). Cell culture plates were coated overnight with 0.05 mg/ml poly-D-lysine mol wt 70,000-150,000 (Sigma Aldrich) in 0.15 M borate buffer (pH=8.5). Cells were seeded in 24-well plates at a density of 5×10^4 cells in 1 ml growth medium (Neurobasal A medium, 1 x B27 supplement, 0.25×GlutaMAX, all Thermo Fisher Scientific) per well. All cultures were kept in a humidified incubator at 37° C. and 5% CO2. Growth medium was renewed after 7 days of culture. For all experiments, mature twenty-one-day old primary neuronal cultures were used.\nPrimary hippocampal neurons were generated from E16.5 embryos and cultured for 21 days, as described above (see Primary Cell Culture). For experiment 1 (FIGS. 3A-K), neurons were treated with a saline solution, (R,S)-ketamine (10 μM) (Ketaset, Zoetis, Germany) or (2R,6R)-HNKet (10 μM) (Sigma, Cat #SML1873-25MG) for 0, 2, 12, 24 or 48 hours and compared to untreated controls. For experiment 2 (FIGS. 6A-D), neurons were stimulated with either a saline solution, (2R,6R)-HNKet (10 μM), or a combination of (2R,6R)-HNKet (10 μM) plus nifedipine (10 μM) (Tocris Bioscience, Cat #1075), W-7 hydrochloride (10 μM) (Tocris, Cat #0369), or cyclosporine-A (1 μM) (Tocris, Cat #1101) for 30 minutes, 1, 2, or 6 hours, and compared to untreated controls. […]"}, "[2]": {"tested_on": "Kcnq2 mRNA in glutamatergic neurons of the vHipp", "experiment": "qPCR mRNA levels in FACS-sorted glutamatergic neurons (Ai9+/tdTomato+) and remaining cells (Ai9-/tdTomato-) of Nex-Cre-Ai9 mice", "type": "in vivo, mouse", "conditions": "glutamatergic neurons (tdTomato+) of the vHipp, two days after treatment; ketamine 10, escitalopram 10, retigabine 1 mg/kg/BW", "source_text": "Conditional transgenic mice expressing tdTomato in glutamatergic neurons of the forebrain (Nex-Cre;Ai9) were generated by crossing homozygous Nex-Cre mice [described in S. Goebbels et al., Genesis (2006) 44: 611-621] with homozygous Ai9 mice [Gt(ROSA)26Sortm9(CAG-tdTomato)Hze] [described in L. Madisen et al., Nat Neurosci (2010) 13: 133-140].\nIn order to further investigate these findings, a conditional reporter mouse line (Nex-Cre-Ai9) was generated where most glutamatergic neurons of the forebrain, including the hippocampus, are fluorescently labeled by tdTomato (Ai9) except for neurons in the dentate gyrus where Neurod6, the promoter used to target glutamatergic neurons driving Cre expression, is not expressed (FIG. 12) [J. Hartmann et al., Mol Psychiatry (2017) 22: 466-475]. Following the same paradigm used in the original cohort, mice were group-housed and injected with (R,S)-ketamine (10 mg/kg BW) or a saline vehicle control. The vHipp of these mice was dissected […] later (i.e. 2 days). Single-cell suspensions were prepared and individual cells were sorted using fluorescence activated cell sorting (FACS) (FIG. 2A) into two separate pools of cells from each mouse. One pool contained glutamatergic neurons (Ai9+) and a second contained all remaining cell types of the vHipp (Ai9-) (FIG. 2A and FIGS. 13A-C). […] These two separate pools of cells were then used to validate the scRNA-seq findings in glutamatergic neurons at the population level using quantitative real-time polymerase chain reaction (qPCR).\nNext, it was tested whether retigabine can produce similar synergistic effects in combination with traditional antidepressants."}, "[3]": {"tested_on": "KCNQ channel (KCNQ2/3, M-current)", "experiment": "In vitro whole-cell voltage-clamp recording of M-current (IM) density in primary hippocampal neurons", "type": "cell-based, mouse", "conditions": "HNKet 10 μM, 24 hours vs saline"}, "[4]": {"tested_on": "primary hippocampal neurons", "experiment": "qPCR mRNA expression in primary hippocampal neurons treated with ketamine or HNKet", "type": "cell-based, mouse", "conditions": "10 μM", "description": "as §1\nPrimary hippocampal neurons were generated from E16.5 embryos and cultured for 21 days, as described above (see Primary Cell Culture). For experiment 1 (FIGS. 3A-K), neurons were treated with a saline solution, (R,S)-ketamine (10 μM) (Ketaset, Zoetis, Germany) or (2R,6R)-HNKet (10 μM) (Sigma, Cat #SML1873-25MG) for 0, 2, 12, 24 or 48 hours and compared to untreated controls. For experiment 2 (FIGS. 6A-D), neurons were stimulated with either a saline solution, (2R,6R)-HNKet (10 μM), or a combination of (2R,6R)-HNKet (10 μM) plus nifedipine (10 μM) (Tocris Bioscience, Cat #1075), W-7 hydrochloride (10 μM) (Tocris, Cat #0369), or cyclosporine-A (1 μM) (Tocris, Cat #1101) for 30 minutes, 1, 2, or 6 hours, and compared to untreated controls.\nKetamine treatment regulates Kcnq2 in primary hippocampal neurons To corroborate the previous findings in glutamatergic neurons, it was next examined whether treatment of primary hippocampal neurons with either (R,S)-ketamine or its active metabolite, (2R,6R)-hydroxynorketamine (HNKet), could modify the mRNA expression of the 8 genes tested earlier in glutamatergic neurons. Mouse primary hippocampal neurons are mostly made up of glutamatergic neurons and therefore make a very good model system to further validate the previous in vivo findings. […]"}, "mice (C57BL/6N)": {"tested_on": "mice (C57BL/6N)", "experiment": "Forced swim test (FST), pharmacological manipulation of KCNQ", "type": "in vivo, mouse", "conditions": "XE991 1 and 3 mg/kg BW in combination with saline (FIG. 23A)", "description": "C57BL/6N and CD-1 (ICR) male mice aged 10 weeks old were used in these experiments. Ketamine hydrochloride (Ketaset, Zoetis, Germany) was diluted in 0.9% NaCl solution (saline) and administered i.p at 1, 5 or 10 mg/kg BW, depending on the experiment design. The KNCQ inhibitor, XE991 (Alomone labs; Cat #: X-100) was diluted in 5% DMSO and administered i.p at 1 or 3 mg/kg BW. The KCNQ activator, Retigabine (Alomone labs; Cat #: R-100), was diluted in 5% DMSO and administered i.p at 1 or 5 mg/kg BW. As control, mice were injected with a DMSO-saline solution (5% DMSO). For all experiments, mice were tested 30 minutes after injection in the FST or over a period of 36 hours after injection in the social boxes.\nPrevious studies in rodents have shown that KCNQ function can be regulated with highly-specific agonists and antagonists [V. Barrese et al., Annu Rev Pharmacol Toxicol (2018) 58: 625-648]. To further explore the KCNQ channel as a potential therapeutic target of ketamine, it was examined whether pharmacological inhibition of KCNQ alone or in combination with ketamine had any effects on behavior. To accomplish this, a new cohort of mice received two injections with a combination of drugs. […] To assess the effects of ketamine, XE991 (KCNQ inhibitor), and its combination, these mice were exposed to a FST (FIG. 7A, left). […] The inventors then sought to test whether the effects of ketamine could be mimicked, increased or amplified using retigabine, also known as ezogabine, a selective KCNQ (Kcnq2/3) channel activator. Similarly to the previous experiment, mice were treated with saline, (R,S)-ketamine (10 mg/kg BW), or ketamine in combination with two different concentrations of retigabine (1 and 5 mg/kg BW) (FIG. 7A, right).\nNext, it was examined whether retigabine could increase the sustained antidepressant-like effects produced by a single injection of ketamine in mice. Accordingly, a new cohort of mice were treated with a single dose of saline, ketamine, or ketamine in combination with retigabine (1 mg/kg) and antidepressant-like behaviors were assessed using the FST, 5—and 7-days post-injection (FIG. 8A). […] Next, as a potential therapeutic strategy for major depressive disorder (MDD), the synergistic effects of ketamine and retigabine was further investigated by testing whether or not retigabine can increase the antidepressant-like effects produced by ketamine in mice. […] Next, it was tested whether retigabine can produce similar synergistic effects in combination with traditional antidepressants. […] Lastly, using a new cohort of Nex-Cre-Ai9 mice, it was tested whether the adjunctive treatment of ketamine with retigabine, or escitalopram alone, could modify the expression of Kcnq2 mRNA in FACS sorted cells from the vHipp (FIG. 8F)."}}}
{"smiles": "Cl.NCCCCCCNS(=O)(=O)c1cccc2c(Cl)cccc12", "note": "[W-7, W-7 hydrochloride]", "values": [{"measurement": "effect of inhibitor on the HNKet-induced upregulation of Kcnq2 mRNA", "setting": "[1]; combined with HNKet 10 μM, nifedipine 10 μM, W-7 10 μM, cyclosporine-A 1 μM, 1, 2, 6 hours", "value": "eliminated the upregulation of Kcnq2"}]}
{"smiles": "CN(C)CCC[C@@]1(c2ccc(F)cc2)OCc2cc(C#N)ccc21", "note": "[escitalopram]", "values": [{"measurement": "Kcnq2 mRNA", "setting": "[2]", "value": "No significant changes"}]}
{"smiles": "N[C@@]1(c2ccccc2Cl)CCC[C@@H](O)C1=O", "note": "[HNKet, (2R,6R)-hydroxynorketamine]", "values": [{"measurement": "IM current density", "setting": "[3]", "value": "significant increase in IM current density"}, {"measurement": "mRNA expression of Hspa8, Snap25, Hsp90ab1, Ndufa4, Ilf2, E2f1 and Kcnq2", "setting": "[4]; 2, 12, 24 or 48 hours", "value": "significant changes"}, {"measurement": "Kcnq2 mRNA expression", "setting": "[4]; 2, 12, 24 or 48 hours vs untreated and saline controls", "value": "significant upregulation at all time points tested"}, {"measurement": "Kcnq2 mRNA", "setting": "[1]; 1, 2 and 6 hours of stimulation, HNKet 10 μM", "value": "significant upregulation of Kcnq2 mRNA"}, {"measurement": "expression of Kcnq2", "setting": "[1]; 30 minutes of treatment, HNKet 10 μM", "value": "No significant differences"}]}
{"smiles": "O=C1c2ccccc2C(Cc2ccncc2)(Cc2ccncc2)c2ccccc21", "note": "[XE991, 10,10-bis(4-pirinydilmethyl)-9(10H)−antracenone]", "values": [{"measurement": "immobility time during the FST", "setting": "mice (C57BL/6N)", "value": "No significant differences"}]}
